Source: article PMC3467217, “A Potent Class of GPR40 Full Agonists Engages the EnteroInsular Axis to Promote Glucose Control in Rodents” (PLoS ONE, 2012)

Experiments:
[1] = test system: wild type and GPR40 knockout mice; test: OGTT and GLP-1 secretion in wild type and GPR40 null mice; format: in vivo, mouse; details: wild type mice
Description: (§1) All procedures on animals were approved by the Amgen San Francisco Institutional Animal Care and Use Committee (approved protocols #11–04 and #2007–00106). The Amgen San Francisco vivarium is an AAALAC accredited facility. Animals were housed under a 12-h light, 12-h dark cycle (lights-on 0600 h and lights-off 1800 h) and were allowed ad libidum access to chow and water. The HF/STZ mice were established as previously described. Briefly, C57BL/6j mice (Jackson labs) at 4 weeks of age were fed a high-fat diet (BioServ S1850, 35% fat) for 3-weeks and then injected with 95 mg/kg streptozotocin (Sigma) ip to induce beta cell dysfunction. The animals continued on the same high fat diet for 3–6 additional weeks. Animals were then randomized into treatment groups based on fasting blood glucose and insulin measures. NONcNZO10/LtJ (RCS10) male mice (Jackson labs) were used at 12-weeks of age and randomized for treatment based on fasting glucose levels. For OGTT experiments, drugs were formulated in 1% HPMC, 10% HPbCD, 1% Tween-80 and dosed via oral gavage. Glucose was administered at 2 g/kg 1-hour post drug dose by oral gavage.
(§2) For all glucose tolerance tests, glucose and insulin measurements were taken from tail vein samples at various time-points. Blood glucose values were measured on an Accu-Chek glucometer (Roche Diagnostics), while insulin levels were determined using an ELISA (Alpco).

[2] = target: T1, GPR41 (FFAR3) (Homo sapiens, UniProt O14843); test: GPR41 aequorin assay; format: cell-based; details: up to 10 µM
T1 construct: expressed in transfected cells
From the text: (§3) (A) GPR41 (FFAR3) aequorin assay. GPR41 was force coupled to the calcium signaling pathway by co-transfecting the cells with Gqmyri5. (B) GPR43 (FFAR2) aequorin assay. The short chain fatty acid propionate acts as a natural agonist ligand for GPR41 and GPR43. (C) GPR120 aequorin assay. The unsaturated fatty acids α-LNN and DHA act as natural agonist ligands for GPR120. (D) PPAR-gamma luciferase assay using the thiazolidinedione rosiglitazone as a positive control. […] (TIF) Click here for additional data file.

[3] = rat, mouse, beagle dog and cynomolgus monkey; cited from earlier work
[4] = target: PPAR delta (Homo sapiens, UniProt Q03181); test: PPAR-delta luciferase reporter assay; format: cell-based; details: concentrations up to 10 µM
[5] = target: PPAR gamma (Homo sapiens, UniProt P37231); test: PPAR-gamma luciferase assay; format: cell-based; details: concentrations up to 10 µM
From the text: as §3

[6] = test system: HF/STZ mice; test: OGTT in high-fat fed, streptozotocin-treated (HF/STZ) type 2 diabetic mice; format: in vivo, mouse; details: OGTT; for Glucose AUC improvement: 1 hour before glucose
Description: as §1, §2

[7] = test system: human islet cells; test: Inositol phosphate assay with dispersed human islet cells; format: cell-based
Description: Mouse islets were isolated and tested for stimulation of GSIS as described. Human islets were purchased from Prodo labs or were obtained from the National Institutes of Health and Juvenile Diabetes Research Foundation supported Islet Cell Resource Consortium (http://icr.coh.org). Islet inositol phosphate assays were performed on islets cells that had been dispersed with trypsin. 10,000 islet cells were plated/well of a 96-well plate and were loaded with ^3H-myo-inositol (0.5 µCi/well) in RPMI overnight prior to treatment. The next day, response to different stimuli was tested in HBSS containing 10 mM LiCl and 0.1% HSA (w/v) for 1 hour at 37°C. Accumulated ^3H-inositol phosphate was measured after capture to SPA beads. Islet perifusion experiments were performed on mouse islets loaded into a Brandel Suprafusion system. Twenty islets were size-matched and loaded per perifusion chamber. Islets were perifused in KRBH containing, sequentially, 3 mM glucose, then 3 mM glucose containing 10 µM drug, 16.7 mM glucose containing 10 µM drug and finally returned to 3 mM glucose containing 10 µM drug. Insulin was measured using an insulin ELISA kit (Alpco). Fetal rat intestinal cells were isolated from e19-day old fetuses of pregnant Sprague-Dawley rats. […] GLP-1 and GIP1 secreted into the media was measured using ELISA kits specific for GLP-1 (Linco) or GIP (Millipore).

[8] = target: T2, GPR40 (Homo sapiens, UniProt O14842); test: Inositol phosphate accumulation assay in A9 cells stably expressing GPR40 (A9_GPR40); format: cell-based; details: inositol phosphate assay
T2 construct: expressed in transfected cells; host or cells: CHO cell line stably expressing GPR40 and aequorin
Description: (§4) GPR40 aequorin, plasmid titration, and inositol phosphate assays were performed as described. For aequorin assays, in addition to transient transfection of GPR40 into CHO cells, a CHO cell line stably expressing both GPR40 and aequorin was generated. GLUTag cells were obtained under a license from Dr. Daniel Drucker, University of Toronto. Competition binding experiments were performed using membranes prepared from A9_GPR40 cells. […] Competition binding assays were carried out in 20 mM Hepes pH 7.5, 5 mM MgCl2, 100 mM NaCl and 0.1% (w/v) free fatty acid BSA and bound radioligand was collected on 96-well GF/C filter plates.
(A) Structure of selected GPR40 agonists. (B) GPR40 agonists were tested in parallel in vitro in an inositol phosphate accumulation assay in A9 cells stably expressing GPR40. (TIF) Click here for additional data file.

[9] = target: T2, GPR40; test: Competition binding with 3H-AM-1638 on A9_GPR40 membranes; details: unlabelled competitor
Description: as §4

[10] = test system: C57/Bl6 mice; test: IPGTT in C57BL/6j mice with or without GLP-1R antagonist Ex(9-39)NH2; format: in vivo, mouse
Description: An intraperitoneal rather than oral glucose challenge was performed in order to bypass the incretin effect of an oral glucose administration.
IPGTT experiments with Ex(9–39)NH2 (Bachem) were performed with male C57BL/6j (n = 6–7/group) at 26-weeks of age. Ex(9–39)NH2 was formulated in PBS containing 0.1%BSA and dosed ip at 300 µg/kg.
as §2

[11] = target: T2, GPR40; test: Aequorin Ca2+ flux assay in CHO cell line stably expressing GPR40; format: cell-based; details: CHO-GPR40 stable cell line
Description: Since GPR40 agonists with greater intrinsic activity may have improved anti-diabetic properties, we focused our efforts to discover potent synthetic full agonists.
as §4

T2 sequence (O14842 whole entry): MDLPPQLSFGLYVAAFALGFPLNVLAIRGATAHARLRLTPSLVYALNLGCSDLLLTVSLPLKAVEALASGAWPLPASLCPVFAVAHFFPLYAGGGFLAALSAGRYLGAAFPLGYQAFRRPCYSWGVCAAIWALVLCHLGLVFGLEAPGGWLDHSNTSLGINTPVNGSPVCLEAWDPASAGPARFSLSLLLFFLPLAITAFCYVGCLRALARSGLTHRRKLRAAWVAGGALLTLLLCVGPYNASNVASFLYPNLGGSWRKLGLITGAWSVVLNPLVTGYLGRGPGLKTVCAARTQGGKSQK
Sequence of PPAR gamma (P37231 whole entry): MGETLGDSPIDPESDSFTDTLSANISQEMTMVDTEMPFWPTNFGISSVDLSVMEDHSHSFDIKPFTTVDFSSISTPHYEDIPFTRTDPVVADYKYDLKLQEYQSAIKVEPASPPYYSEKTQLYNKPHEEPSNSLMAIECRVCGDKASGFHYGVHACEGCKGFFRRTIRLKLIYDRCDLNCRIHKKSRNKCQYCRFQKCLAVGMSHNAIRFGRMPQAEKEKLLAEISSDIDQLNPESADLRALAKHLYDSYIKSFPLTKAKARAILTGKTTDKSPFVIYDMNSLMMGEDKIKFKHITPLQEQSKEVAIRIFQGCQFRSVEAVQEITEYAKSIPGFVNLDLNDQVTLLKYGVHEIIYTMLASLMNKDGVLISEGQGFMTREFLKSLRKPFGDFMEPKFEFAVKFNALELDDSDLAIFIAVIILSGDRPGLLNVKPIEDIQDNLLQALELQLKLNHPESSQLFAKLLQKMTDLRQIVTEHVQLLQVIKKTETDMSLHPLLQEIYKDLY
T1 sequence (O14843 whole entry, species assumed): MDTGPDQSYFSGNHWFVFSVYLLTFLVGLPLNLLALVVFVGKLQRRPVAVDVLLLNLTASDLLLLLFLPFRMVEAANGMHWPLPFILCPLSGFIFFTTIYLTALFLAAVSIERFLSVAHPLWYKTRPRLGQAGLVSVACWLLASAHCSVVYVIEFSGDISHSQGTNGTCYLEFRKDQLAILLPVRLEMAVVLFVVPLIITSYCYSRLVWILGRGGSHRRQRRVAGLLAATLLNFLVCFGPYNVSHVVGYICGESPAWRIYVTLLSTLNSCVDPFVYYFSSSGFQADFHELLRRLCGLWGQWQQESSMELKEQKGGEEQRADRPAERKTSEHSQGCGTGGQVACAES
Sequence of PPAR delta (Q03181 whole entry): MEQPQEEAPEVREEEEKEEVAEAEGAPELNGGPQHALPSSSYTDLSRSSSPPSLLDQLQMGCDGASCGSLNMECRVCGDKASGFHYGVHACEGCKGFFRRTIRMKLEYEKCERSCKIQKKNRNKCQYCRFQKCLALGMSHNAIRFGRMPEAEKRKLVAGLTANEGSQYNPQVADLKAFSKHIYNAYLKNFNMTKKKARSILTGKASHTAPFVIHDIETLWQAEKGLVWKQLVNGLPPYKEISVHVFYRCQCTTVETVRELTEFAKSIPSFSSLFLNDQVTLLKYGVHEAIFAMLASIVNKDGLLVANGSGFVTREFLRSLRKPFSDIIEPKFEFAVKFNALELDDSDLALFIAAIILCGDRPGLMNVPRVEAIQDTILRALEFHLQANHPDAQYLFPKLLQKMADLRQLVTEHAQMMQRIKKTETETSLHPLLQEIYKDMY

COc1ccc(F)c(-c2ccc(COc3cccc([C@@H](CC(=O)O)C4CC4)c3)cc2C2=CCCC2(C)C)c1 [AM-1638]
improvement in pre- and post-challenge glucose levels ([1]; OGTT, single oral dose): evident in wild type | plasma GLP-1 levels ([1]; single dose 100 mg/kg): elicited an increase | activation of GPR41 (FFAR3) [2]: did not activate | pharmacokinetic properties [3]: suitable for oral dosing | activation of PPAR delta [4]: did not activate | activation of PPAR gamma [5]: did not activate | Glucose AUC improvement ([6]; 10 mg/kg oral): 15% | Glucose AUC improvement ([6]; 30 mg/kg oral): 23% | Glucose AUC improvement ([6]; 60 mg/kg oral): 35% | Glucose AUC improvement ([6]; 100 mg/kg oral): 48% | insulin secretion, fold greater than AMG 837 ([6]; higher doses): 1.5–2.2 fold | IP production efficacy, fold greater than AMG 837 [7]: 8–10 × | intrinsic activity, fold greater than AMG 837 [8]: ~2 fold | EC50 ([8]; 1-hour accumulation, read-out: Half-maximal potency): 13.1 ± 1.1 nM | displacement of 3H-AM-1638 [9]: displaced ^3H-AM-1638 | Glucose AUC reduction ([10]; AM-1638 60 mg/kg alone): ~53% | Glucose AUC reduction ([10]; AM-1638 60 mg/kg in the presence of exendin(9-39)NH2 300 µg/kg ip): ~25% | EC50 [11]: 160 ± 10 nM | Emax ([11]; compared to natural free fatty acid ligands, read-out: Emax (efficacy)): 100%
